Assay [1] has as its system sulfur oxidizing bacteria isolated from a corroding sewer (Acidithiobacillus spp.). In words: modified Kirby-Bauer diffusion susceptibility test, metal-laden PAC on thiosulfate agar (solid media). The class given is cell-based, Acidithiobacillus thiooxidans. The note with it: average. The text has this: Bacterial cell abundance on the different areas of the plate surfaces were quantified using the epifluorescence microscopy methods known in the art. Areas selected for representative analysis were located in the center of each inhibition zone and the dispersed colonies area, and 10 mm into the bacterial monolayer.
Acidithiobacillus spp. response to metal mixtures is limited, however, the synergy of binary and ternary metal solutions have been described. […] The classic Kirby-Bauer antibiotic sensitivity test was adopted to assess diffusion inhibition of Acidithiobacillus thiooxidans growing on agar surfaces, in a longitudinal format.

Assay [2] deals with Acidithiobacillus spp. enrichments from sewer crown biofilm extract. The assay is described as follows: metal inhibition in liquid media (pH monitoring and cell counts of sewer enrichments). It is filed as cell-based. The note with it: for cell density where pH dropped: average, aliquots when pH reached 2. As to the method: FIGS. 4A-4E are graphs showing pH of enrichments including different levels of copper, cobalt, and silver, alone and in combinations. FIG. 4A: Cu^2+, FIG. 4B: Ag+, FIG. 4C: Cu/Ag in combination at a ratio 2:1, FIG. 4D: Co^2+, and FIG. 4E: Cu/Co in combination at a ratio 1:1. Enrichments were inoculated with 150 μL of biofilm extract from a corroded site and dominated by Acidithiobacillus spp. (>95% relative abundance).
FIGS. 5A-5E are graphs showing cell densities (cells/mL) observed in sewer sourced enrichment cultures including copper, cobalt and silver, alone and in combinations. FIG. 5A: Cu^2+, FIG. 5B: Ag^+, FIG. 5C: Cu^2+/Ag^+ in combination at a ratio 2:1, FIG. 5D: Co^2+, and FIG. 5E: Cu^2+/Co^2+ in combination at a ratio 1:1. Light grey bars indicate enrichment cultures where pH dropped below 2. Dark grey bars indicate batches where pH approached neutrality. (n=3).
The pH was monitored and used as an indicator for significant acidophilic SOB activity (FIGS. 4A-4E). Thiobacillus media, without any metal addition, was used as control for comparative analysis. […] Above 40 mg Cu/L, no pH depression was observed; in contrast, pH increased and plateaued at values ranging between 6.5 and 6.7. […] Where only cobalt and silver were used, all challenges indicated some evidence of acidophilic activity.
Combinations of metals were also studied, including Cu/Ag and Cu/Co at mass ratios of 2:1 and 1:1, respectively. […] Thresholds for pH were also observed above 10 mg Cu/L and 10 mg Co/L, where copper and cobalt were combined. This challenge was monitored over 30 days, indicating significant acidophilic activity after […] of incubation.
All metal species used for the challenges were based on nitrate salts. Therefore, inhibition in the presence of counter ions, was also monitored. Challenges with increasing NO3 concentrations (up to 200 mg NO3/L) where prepared with NaNO3. All challenges indicated acidophilic activity and no lag effect was ever observed.
Aliquots for cell quantification and genetic analyses were extracted from each experiment when pH reached 2. If no pH drop was observed, aliquots were extracted after 30 days of incubation. FIGS. 5A-5E illustrate the observed cell densities for all tests.
The inhibitory effects and minimum inhibitory concentration of Cu and Co were further assessed on mixed acidophilic cultures in a liquid format. Silver (Ag) was also included based on its literature history as broad-spectrum inhibitory metal. As for the solid inhibition assays, the results presented in this study support the hypothesis that different metal may ions have markedly different inhibitory potential against Acidithiobacillus spp. extracted from sewer crowns. […] In thiosulfate-based media, stationary phase for Acidithiobacillus cultures was reached 8 days after inoculation. The relative duration of experiments highlighted metal-induced lag phases from stable inhibitory concentrations. MICs clearly emerged for Cu alone (50 mg Cu/L), and in mixtures of Cu/Ag (50 mg/L and 25 mg/L) and Cu/Co (15 mg/L and 15 mg/L). […] No inhibitory synergism was observed when mixing Cu and Ag at a 2:1 ratio, when compared to any individual metal alone. However, synergistic inhibition was observed when Cu and Co were present at a 1:1 ratio. […] The literature is tenuous on this topic.

Assay [3] has as its system Acidithiobacillus spp. The assay is described as follows: 16S rRNA gene analysis of metal-exposed enrichment cultures. It is filed as cell-based. To be noted: below 40 mg Cu/L. The text has this: Cu and Cu/Ag mixtures were chosen to investigate the microbial communities under conditions where a pH threshold was observed. 16S rRNA gene analysis of 17 samples generated over 4 million sequences, classified in 611 operational taxonomic units (OTUs). After rarefaction analysis, the median Good's coverage was >99.9%, indicating enough sequencing data to confidently describe the diversity within these samples. Abundant OTUs consistently included 5 bacteria genera (FIGS. 6A-6B). Samples with metal concentration below the acidophilic inhibition threshold (40 mg Cu/L) indicated bacterial communities were dominated by Acidithiobacillus spp. […] When copper and silver were both present, Acidithiobacillus represented the dominant genus below the concentrations of 40 mg Cu/L and 20 mg Ag/L. The same genus represented less than 1% in batches above these concentrations. Following the same pattern as in the presence of Cu alone, the enrichments were also dominated by Burkholderia and Ralstonia spp. with significant presence of Sphingomonas spp., Leifsonia spp., Methylobacterium spp., and Microbacteriaceae spp. (when Cu ≥40 mg/L).

Consider `[Zn]` [Zn, zinc], for which, in assay [1], the “metal normalized inhibition length (Zn)” value was 0.14 cm·(mg Zn/L)^−1.

Regarding `[Ag]` [Ag, silver], the “MIC, Ag” value in assay [2] (30 days, Ag alone (highest tested) or in Cu/Ag) was > 75 µg/mL. For the same molecule, in assay [2] (Ag alone (highest tested) or Cu/Ag 2:1), the “threshold Ag concentration for pH depression” value was ≥ 75 mg Ag/L. In assay [2], the “cell density where pH dropped” value is reported as 1.73×10^8 cells/mL.

Regarding `O=[N+]([O-])[O-].[Na+]` [NaNO3, reference compound], in assay [2] (counter ion challenge), the “highest NO3 concentration still showing acidophilic activity, no lag” value is reported as ≥ 200 mg NO3/L.

As for `[Cu+2]` [Cu, copper], in assay [1] (agar, 10 days, pH below 3, Cu alone or co-loaded with Co on PAC), the “metal normalized inhibition length (Cu)” value is given as 2.36 cm·(mg Cu/L)^−1. Besides, the “MIC, Cu” value in assay [2] (30 days, Cu alone or in Cu/Ag 2:1, Cu/Co 1:1) stood at 50 µg/mL. Besides, in assay [2] (aliquots after 30 days), the “cell density where pH did not drop” value is recorded as 1.11×10^9 cells/mL. Further, the “cell density where pH dropped” value in assay [2] is on record as 1.06×10^8 cells/mL. In addition, in assay [2] (no significant pH drop after 30 days, Cu alone), the “minimum inhibitory concentration (MIC) for acidophilic growth” value was found to be 50 mg Cu/L. Further, in assay [2] (up to 40 mg Cu/L), the “endpoint pH of challenges at or below threshold” value was < 2 pH. The “Acidithiobacillus relative abundance below threshold” value in assay [3] was > 99%.

In the case of `[Ni]` [Ni, nickel], in assay [1], the “metal normalized inhibition length (Ni)” value is given as 0.28 cm·(mg Ni/L)^−1.

Turning to `[Cd]` [Cd, cadmium], the “metal normalized inhibition length (Cd)” value in assay [1] is listed as 0.74 cm·(mg Cd/L)^−1.

For `[Co+2]` [Co, cobalt], the “metal normalized inhibition length (Co)” value in assay [1] (Co alone or co-loaded with Cu on PAC) is on record as 1.23 cm·(mg Co/L)^−1. In addition, the “MIC, Co” value in assay [2] (30 days, Co alone or in Cu/Co) is > 50 µg/mL. In addition, the “threshold Co concentration for pH depression” value in assay [2] (Co alone (highest tested) or Cu/Co 1:1) is ≥ 50 mg Co/L. For the same molecule, in assay [2], the “cell density where pH dropped” value is 3.81×10^8 cells/mL.
